{"source": "patent US20070225351A1", "about": "“Methods and compositions for controlling body weight and appetite” (priority 2002, published 2007)", "key": {"serotonin transporter": {"molecular_target": "T1, serotonin transporter (Rattus norvegicus, UniProt P31652)", "T1 construct": "The receptor source was rat forebrain membrane; from tissue; host or cells: rat forebrain membranes", "T1 sequence (P31652 whole entry)": "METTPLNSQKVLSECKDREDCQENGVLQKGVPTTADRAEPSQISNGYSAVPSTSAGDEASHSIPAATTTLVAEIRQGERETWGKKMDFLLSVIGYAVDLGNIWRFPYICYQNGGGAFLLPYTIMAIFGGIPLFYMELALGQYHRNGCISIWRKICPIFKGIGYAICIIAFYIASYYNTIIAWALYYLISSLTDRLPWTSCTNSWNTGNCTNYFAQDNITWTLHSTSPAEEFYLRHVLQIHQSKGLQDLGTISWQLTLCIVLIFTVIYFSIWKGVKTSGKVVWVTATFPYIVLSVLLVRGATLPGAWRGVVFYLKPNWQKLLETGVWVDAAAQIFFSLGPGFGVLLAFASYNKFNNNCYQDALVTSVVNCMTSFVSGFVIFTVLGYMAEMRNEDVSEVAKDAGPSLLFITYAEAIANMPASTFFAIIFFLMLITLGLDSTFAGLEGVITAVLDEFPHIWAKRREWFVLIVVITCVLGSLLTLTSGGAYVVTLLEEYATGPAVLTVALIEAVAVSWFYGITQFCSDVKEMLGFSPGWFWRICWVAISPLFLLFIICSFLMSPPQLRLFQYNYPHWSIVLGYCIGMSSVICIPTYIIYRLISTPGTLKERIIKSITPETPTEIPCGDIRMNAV", "experiment": "Serotonin transporter binding assay, [3H]citalopram", "conditions": "from Table 2", "method": "The reference compound and positive control were (±)-desmethylimipramine. […] Reactions were carried out in 50 mM TRIS-HCl (pH 7.4) containing 120 mM NaCl and 5 mM KCl at 25° C. for 60 minutes. The reaction was terminated by rapid vacuum filtration onto glass fiber filters. Radioactivity trapped in the filters was determined using liquid scintillation spectrometry and compared to control values in order to ascertain any interactions of test compound with the serotonin transporter binding site."}, "[1]": {"experiment": "Toxicokinetic evaluation in rats", "conditions": "rat, in vivo; for AUC(0-t): Crl:CD(SD)IGS BR, po, 10 mg/kg/day, AUC0-24 h", "method": "For toxicokinetic evaluation, all animals were observed twice daily for mortality and moribundity. Blood samples were collected from three animals/sex/group at 0 (pre-dose), 1, 2, 4, 8 and 24 hours after dose administration on study days 0 and 87. All toxicokinetic animals were euthanized and discarded following the final blood collection (study day 88)."}, "in vivo": {"experiment": "in vivo", "format": "in vivo", "conditions": "female dogs", "method": "Eighteen male and eighteen female beagle dogs were received from Ridglan Farms, Mt. Horeb, Wis. […] Each group consisted of four males and four females. All animals/sex/group were scheduled for the primary necropsy at the end of the 13-week treatment period.\nThe animals were observed twice daily for mortality and moribundity. Clinical examinations were performed daily at the time of dosing and approximately 1-2 and approximately 3 hours following dose administration. Detailed physical examinations were performed weekly. Clinical pathology evaluations (hematology, serum chemistry and urinalysis) were performed prior to the initiation of dose administration (study week-1) and prior to the scheduled necropsy (study week 13). Individual body weights were recorded weekly, beginning approximately two weeks prior to test article administration (study week-2). Mean body weights and mean body weight changes were calculated for each corresponding interval. Final body weights (fasted) were recorded prior to the scheduled necropsy. […] Gross lesions were also examined from the 2.0 and 6.0 mg/kg/day groups."}}, "data": [{"smiles": "Cl.Clc1ccc([C@@]23CNC[C@@H]2C3)cc1Cl", "note": "(single isomer, unassigned) [(+)-1-(3,4-dichlorophenyl)-3-azabicyclo[3.1.0]hexane hydrochloride]", "values": [{"measurement": "affinity for the serotonin uptake site compared with the (±) compound", "setting": "serotonin transporter", "value": "significantly greater affinity"}, {"measurement": "AUC(0-t)", "setting": "[1]; female", "value": 14400, "unit": "ng·h/mL"}, {"measurement": "AUC(0-t)", "setting": "[1]; male", "value": 8130, "unit": "ng·h/mL"}, {"measurement": "exposure versus dose", "setting": "[1]", "value": "increased dose-dependently"}, {"measurement": "mean total cumulative body weight change, lower than control", "setting": "in vivo; 20 mg/kg/day, end of 13-week study", "value": 65, "unit": "%"}, {"measurement": "mean food consumption, lower than control", "setting": "in vivo; 20 mg/kg/day, first week of dose administration", "value": 23, "unit": "%"}, {"measurement": "mean body weight, lower than control", "setting": "in vivo; 20 mg/kg/day, study week 13", "value": 9, "unit": "%"}, {"measurement": "weekly food consumption, MEAN", "setting": "in vivo; 2.0 MG/KG/DAY group, WEEK −1 TO 0 (before dosing)", "value": "295.", "unit": "C/ANIMAL/DAY"}, {"measurement": "weekly food consumption, MEAN", "setting": "in vivo; 2.0 MG/KG/DAY, WEEK 0 TO 1", "value": "291.", "unit": "C/ANIMAL/DAY"}, {"measurement": "weekly food consumption, MEAN", "setting": "in vivo; 2.0 MG/KG/DAY, WEEK 1 TO 2", "value": "319.", "unit": "C/ANIMAL/DAY"}, {"measurement": "weekly food consumption, MEAN", "setting": "in vivo; 2.0 MG/KG/DAY, WEEK 2 TO 3", "value": "361.", "unit": "C/ANIMAL/DAY"}, {"measurement": "weekly food consumption, MEAN", "setting": "in vivo; 2.0 MG/KG/DAY, WEEK 3 TO 4", "value": "358.", "unit": "C/ANIMAL/DAY"}, {"measurement": "weekly food consumption, MEAN", "setting": "in vivo; 2.0 MG/KG/DAY, WEEK 4 TO 5", "value": "369.", "unit": "C/ANIMAL/DAY"}, {"measurement": "weekly food consumption, MEAN", "setting": "in vivo; 2.0 MG/KG/DAY, WEEK 5 TO 6", "value": "360.", "unit": "C/ANIMAL/DAY"}, {"measurement": "weekly food consumption, MEAN", "setting": "in vivo; 2.0 MG/KG/DAY, WEEK 6 TO 7", "value": "393.", "unit": "C/ANIMAL/DAY"}, {"measurement": "weekly food consumption, MEAN", "setting": "in vivo; 2.0 MG/KG/DAY, WEEK 7 TO 8", "value": "360.", "unit": "C/ANIMAL/DAY"}, {"measurement": "weekly food consumption, MEAN", "setting": "in vivo; 2.0 MG/KG/DAY, WEEK 8 TO 9", "value": "383.", "unit": "C/ANIMAL/DAY"}, {"measurement": "weekly food consumption, MEAN", "setting": "in vivo; 2.0 MG/KG/DAY, WEEK 9 TO 10", "value": "375.", "unit": "C/ANIMAL/DAY"}, {"measurement": "weekly food consumption, MEAN", "setting": "in vivo; 2.0 MG/KG/DAY, WEEK 10 TO 11", "value": "389.", "unit": "C/ANIMAL/DAY"}, {"measurement": "weekly food consumption, MEAN", "setting": "in vivo; 2.0 MG/KG/DAY, WEEK 12 TO 13", "value": "355.", "unit": "C/ANIMAL/DAY"}, {"measurement": "weekly food consumption, MEAN", "setting": "in vivo; 6.0 MG/KG/DAY group, WEEK −1 TO 0 (before dosing)", "value": "275.", "unit": "C/ANIMAL/DAY"}, {"measurement": "weekly food consumption, MEAN", "setting": "in vivo; 6.0 MG/KG/DAY, WEEK 0 TO 1", "value": "247.", "unit": "C/ANIMAL/DAY"}, {"measurement": "weekly food consumption, MEAN", "setting": "in vivo; 6.0 MG/KG/DAY, WEEK 1 TO 2", "value": "288.", "unit": "C/ANIMAL/DAY"}, {"measurement": "weekly food consumption, MEAN", "setting": "in vivo; 6.0 MG/KG/DAY, WEEK 2 TO 3", "value": "307.", "unit": "C/ANIMAL/DAY"}, {"measurement": "weekly food consumption, MEAN", "setting": "in vivo; 6.0 MG/KG/DAY, WEEK 3 TO 4", "value": "307.", "unit": "C/ANIMAL/DAY"}, {"measurement": "weekly food consumption, MEAN", "setting": "in vivo; 6.0 MG/KG/DAY, WEEK 4 TO 5", "value": "350.", "unit": "C/ANIMAL/DAY"}, {"measurement": "weekly food consumption, MEAN", "setting": "in vivo; 6.0 MG/KG/DAY, WEEK 5 TO 6", "value": "374.", "unit": "C/ANIMAL/DAY"}, {"measurement": "weekly food consumption, MEAN", "setting": "in vivo; 6.0 MG/KG/DAY, WEEK 6 TO 7", "value": "381.", "unit": "C/ANIMAL/DAY"}, {"measurement": "weekly food consumption, MEAN", "setting": "in vivo; 6.0 MG/KG/DAY, WEEK 7 TO 8", "value": "356.", "unit": "C/ANIMAL/DAY"}, {"measurement": "weekly food consumption, MEAN", "setting": "in vivo; 6.0 MG/KG/DAY, WEEK 8 TO 9", "value": "368.", "unit": "C/ANIMAL/DAY"}, {"measurement": "weekly food consumption, MEAN", "setting": "in vivo; 6.0 MG/KG/DAY, WEEK 9 TO 10", "value": "360.", "unit": "C/ANIMAL/DAY"}, {"measurement": "weekly food consumption, MEAN", "setting": "in vivo; 6.0 MG/KG/DAY, WEEK 10 TO 11", "value": "367.", "unit": "C/ANIMAL/DAY"}, {"measurement": "weekly food consumption, MEAN", "setting": "in vivo; 6.0 MG/KG/DAY, WEEK 11 TO 12", "value": "357.", "unit": "C/ANIMAL/DAY"}, {"measurement": "weekly food consumption, MEAN", "setting": "in vivo; 6.0 MG/KG/DAY, WEEK 12 TO 13", "value": "331.", "unit": "C/ANIMAL/DAY"}, {"measurement": "weekly food consumption, MEAN", "setting": "in vivo; 20 MG/KG/DAY group, WEEK −1 TO 0 (before dosing)", "value": "275.", "unit": "C/ANIMAL/DAY"}, {"measurement": "weekly food consumption, MEAN", "setting": "in vivo; 20 MG/KG/DAY, WEEK 0 TO 1", "value": "212.* C/ANIMAL/DAY"}, {"measurement": "weekly food consumption, MEAN", "setting": "in vivo; 20 MG/KG/DAY, WEEK 1 TO 2", "value": "295.", "unit": "C/ANIMAL/DAY"}, {"measurement": "weekly food consumption, MEAN", "setting": "in vivo; 20 MG/KG/DAY, WEEK 2 TO 3", "value": "314.", "unit": "C/ANIMAL/DAY"}, {"measurement": "weekly food consumption, MEAN", "setting": "in vivo; 20 MG/KG/DAY, WEEK 3 TO 4", "value": "337.", "unit": "C/ANIMAL/DAY"}, {"measurement": "weekly food consumption, MEAN", "setting": "in vivo; 20 MG/KG/DAY, WEEK 4 TO 5", "value": "356.", "unit": "C/ANIMAL/DAY"}, {"measurement": "weekly food consumption, MEAN", "setting": "in vivo; 20 MG/KG/DAY, WEEK 5 TO 6", "value": "331.", "unit": "C/ANIMAL/DAY"}, {"measurement": "weekly food consumption, MEAN", "setting": "in vivo; 20 MG/KG/DAY, WEEK 6 TO 7", "value": "328.", "unit": "C/ANIMAL/DAY"}, {"measurement": "weekly food consumption, MEAN", "setting": "in vivo; 20 MG/KG/DAY, WEEK 7 TO 8", "value": "325.", "unit": "C/ANIMAL/DAY"}, {"measurement": "weekly food consumption, MEAN", "setting": "in vivo; 20 MG/KG/DAY, WEEK 8 TO 9", "value": "375.", "unit": "C/ANIMAL/DAY"}, {"measurement": "weekly food consumption, MEAN", "setting": "in vivo; 20 MG/KG/DAY, WEEK 9 TO 10", "value": "322.", "unit": "C/ANIMAL/DAY"}, {"measurement": "weekly food consumption, MEAN", "setting": "in vivo; 20 MG/KG/DAY, WEEK 10 TO 11", "value": "350.", "unit": "C/ANIMAL/DAY"}]}]}
